Experimental data from BindingDB's records for doi:10.1016/j.bmcl.2021.127861 (Neuropore Therapies, 2021).

target: Tumor necrosis factor (Homo sapiens, UniProt P01375); assay: Inhibition of TNFalpha (unknown origin) in HEK-Blue-hTLR2 cells assessed as inhibition of TNFalpha-induced NFkappaB activation pretreated for 2 hrs followed by incubation with TNFalpha for 18 hrs by SEAP assay
Sequence (P01375 whole entry): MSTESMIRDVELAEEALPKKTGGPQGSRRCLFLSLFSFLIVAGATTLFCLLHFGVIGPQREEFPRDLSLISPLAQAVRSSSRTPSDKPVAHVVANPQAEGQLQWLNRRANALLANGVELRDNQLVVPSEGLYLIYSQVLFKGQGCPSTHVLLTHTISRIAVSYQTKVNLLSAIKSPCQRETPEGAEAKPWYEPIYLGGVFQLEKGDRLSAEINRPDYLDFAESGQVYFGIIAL

Compound | IC50 [µM]
CCCCCCCCCCCCCCOCC(CNC(=O)[C@H](CCCCN)NCc1ccc(F)cc1)OCCCCCCCCCCCCCC (some centres not stated) | > 30
CCCCCCCCCCCCCCOCC(CNC(=O)CCCCCN)OCCCCCCCCCCCCCC (configuration not stated) | > 30
CCCCCCCCCCCCCCOCC(CNC(=O)[C@H]1CC[C@H](N)CC1)OCCCCCCCCCCCCCC (some centres not stated) | > 30
CCCCCCCCCCCCCCOCC(CNC(=O)[C@@H](CCCCN)NC(=O)OCc1ccccc1)OCCCCCCCCCCCCCC (some centres not stated) | > 30
CCCCCCCCCCCCCCOCC(CNC(=O)CCN)OCCCCCCCCCCCCCC (configuration not stated) | > 30
CCCCCCCCCCCCCCOCC(CNC(=O)[C@H](CCCCN)NC(=O)OCC1c2ccccc2-c2ccccc21)OCCCCCCCCCCCCCC (some centres not stated) | > 30
CCCCCCCCCCCCCCOCC(CNC(=O)[C@@H](CCCCN)NCc1ccccc1)OCCCCCCCCCCCCCC (some centres not stated) | > 30
CCCCCCCCCCCCCCOCC(CNC(=O)C(CC1CCNCC1)NC(=O)OCC1c2ccccc2-c2ccccc21)OCCCCCCCCCCCCCC (configuration not stated) | > 30
CCCCCCCCCCCCCCOCC(CNC(=O)c1cccc(C2CCNCC2)c1)OCCCCCCCCCCCCCC (configuration not stated) | > 30
CCCCCCCCCCCCCCOCC(CNC(=O)C1(NC(=O)OCc2ccccc2)CCNCC1)OCCCCCCCCCCCCCC (configuration not stated) | > 30
CCCCCCCCCCCCCCOCC(CNC(=O)[C@H](CCCCN)NCc1ccc(-c2ccccc2)cc1)OCCCCCCCCCCCCCC (some centres not stated) | > 30
CCCCCCCCCCCCCCOCC(CNC(=O)c1cccc(N2CCNCC2)c1)OCCCCCCCCCCCCCC (configuration not stated) | > 30
CCCCCCCCCCCCCCOCC(CNC(=O)[C@H]1CCCN1)OCCCCCCCCCCCCCC (some centres not stated) | > 30
CCCCCCCCCCCCCCOCC(CNC(=O)[C@H](CCCCN)NCc1ccccc1)OCCCCCCCCCCCCCC (some centres not stated) | > 30
CCCCCCCCCCCCCCOCC(CNC(=O)CC[C@H](NC(=O)OCC1c2ccccc2-c2ccccc21)C(=O)O)OCCCCCCCCCCCCCC (some centres not stated) | > 30
CCCCCCCCCCCCCCOCC(CNC(=O)[C@H](CCCCN)NC(C)=O)OCCCCCCCCCCCCCC (some centres not stated) | > 30
CCCCCCCCCCCCCCOCC(CNC(=O)[C@@H](N)CCCCN)OCCCCCCCCCCCCCC (some centres not stated) | > 30
